Like-named read-outs stand apart in the source and are kept apart here.
Legend:
[1] = tested on: patients with atrial fibrillation at risk of stroke
Excerpt: Median follow-up was 2.0 years and the primary outcome was stroke or systemic embolism.
Patients were recruited from 951 clinical centers in 44 countries. In brief, patients were eligible if they had atrial fibrillation documented on electrocardiogram at screening or within 6 months; and at least one of the following: prior stroke or transient ischemic attack; left ventricular ejection fraction less than 40%; New York Heart Association heart failure symptoms of Class 2 or greater within 6 months; age at least 75 years; or age at least 65 years with diabetes mellitus, hypertension or coronary artery disease.
The time in therapeutic range was calculated by the method of Rosendaal (Rosendaal F R, et al., A method to determine the optimal intensity of oral anticoagulant therapy, Thromb Haemost, 1993, 69:236-239), excluding INRs from the first week and after discontinuations. […] Concomitant use of aspirin (less than 100 mg/day) or other antiplatelet agents was allowed.
Liver function testing was performed monthly during the first year of follow-up.
The primary study outcome was stroke or systemic embolism. The primary safety outcome was major hemorrhage. Secondary outcomes were stroke, systemic embolism and death. Other outcomes were myocardial infarction, pulmonary embolism, transient ischemic attacks, and hospitalizations. The primary net benefit-risk outcome was the composite of stroke, systemic embolism, pulmonary embolism, myocardial infarction, death or major hemorrhage. Stroke was defined as sudden onset of focal neurological deficit consistent with the territory of a major cerebral artery and categorized as ischemic, hemorrhagic or unspecified. Hemorrhagic transformation of ischemic stroke was not considered as hemorrhagic stroke. Intracranial hemorrhage included hemorrhagic stroke and sub-dural or sub-arachnoid hemorrhage. Systemic embolism was an acute vascular occlusion of an extremity or organ documented by imaging, surgery or autopsy. Major bleeding was defined as a reduction in hemoglobin level of at least […] or transfusion of at least 2 units of blood or symptomatic bleeding in a critical area or organ. Life-threatening bleeding was a subset of major bleeding that included fatal bleeding, symptomatic intracranial bleeding, bleeding with hemoglobin decrease of more than […] or requiring transfusion of more than 4 units of blood or requiring inotropic agents or necessitating surgery. All other bleeding was considered minor.
All primary and secondary outcome events were blindly and doubly adjudicated. An international team of adjudicators reviewed documents in local languages after blinding; or documents were translated by a independent group and blinded centrally. All transient ischemic attacks were reviewed to ensure that strokes had not been missed. To detect possible unreported events, symptom questionnaires were regularly administered to patients, and adverse events and hospitalization reports were scrutinized for unreported primary or secondary outcomes.
If maximum of the two p-values was greater than 0.025, the minimum of the two p-values must be less than 0.0125, one-sided, to claim statistical significance. All analyses were based on intention-to-treat.

AF patients [2] = settings: ACTIVE W (2006), warfarin arm; cited from earlier work
AF patients [3] = settings: SPORTIF III (2003), cited from earlier work
[4] = tested on: patients who have nonvalvular atrial fibrillation; settings: VKAs, such as warfarin; cited from earlier work
AF patients [5] = settings: SPORTIF V (2005), cited from earlier work
[6] = ximelagatran 36 mg b.i.d. vs. warfarin

With `CC(=O)CC(c1ccccc1)c1c(O)c2ccccc2oc1=O` (racemic) [Warfarin, 3-(α-acetonylbenzyl)4-hydroxycoumarin, reference compound] the “ALT or AST > 3xULN” value ([1]; Warfarin arm) was “(2.1) %”, the “ALT or AST > 3xULN with concurrent bilirubin > 2xULN” value ([1]; Warfarin arm) was “(0.4) %” and the “Adverse Event: Arthralgia” value ([1]; Warfarin arm) was “(5.5) %”. The “Adverse Event: Atrial fibrillation” value ([1]; Warfarin arm) was “(5.4) %”, the “Adverse Event: Back pain” value ([1]; Warfarin arm) was “(5.5) %” and the “Adverse Event: Chest pain” value ([1]; Warfarin arm) was “(5.7) %”. For the same molecule, the “Adverse Event: Cough” value ([1]; Warfarin arm) was “(5.8) %”, the “Adverse Event: Diarrhea” value ([1]; Warfarin arm) was “(5.5) %” and the “Adverse Event: Dizziness” value ([1]; Warfarin arm) was “(9.3) %”. For the same molecule, the “Adverse Event: Dyspepsia” value ([1]; Warfarin arm) was “(1.4) %”, the “Adverse Event: Dyspnoea” value ([1]; Warfarin arm) was “(9.2) %” and the “Adverse Event: Fatigue” value ([1]; Warfarin arm) was “(5.9) %”. For the same molecule, the “Adverse Event: Nasopharyngitis” value ([1]; Warfarin arm) was “(5.5) %”, the “Adverse Event: Peripheral edema” value ([1]; Warfarin arm) was “(7.6) %” and the “Adverse Event: Upper respiratory tract infection” value ([1]; Warfarin arm) was “(5.0) %”. For the same molecule, the “Adverse Event: Urinary tract infection” value ([1]; Warfarin arm) was “(5.3) %”, the “All Death, Rate” value ([1]; Warfarin arm) was 4.13 /100 Person Years and the “Any Major Bleeding, Rate” value ([1]; Warfarin arm) was 3.46 /100 Person Years. The “Extracranial Bleeding, Rate” value ([1]; Warfarin arm) was 2.73 /100 Person Years, the “First Hospitalization, Rate” value ([1]; Warfarin arm) was 27.5 /100 Person Years and the “Intracranial Bleeding, Rate” value ([1]; Warfarin arm) was 0.72 /100 Person Years. For the same molecule, the “Life threatening bleeding, Rate” value ([1]; Warfarin arm) was 1.80 /100 Person Years, the “Major gastro-intestinal Bleeding, Rate” value ([1]; Warfarin arm) was 1.03 /100 Person Years and the “Major or Minor Bleeding, Rate” value ([1]; Warfarin arm) was 23.92 /100 Person Years. For the same molecule, the “Minor Bleeding, Rate” value ([1]; Warfarin arm) was 21.03 /100 Person Years, the “Myocardial Infarction, Rate” value ([1]; Warfarin arm) was 0.54 /100 Person Years and the “Non-disabling Stroke Modified Rankin 0-2, Rate” value ([1]; Warfarin arm) was 0.58 /100 Person Years. The “Other Major bleeding, Rate” value ([1]; Warfarin arm) was 1.80 /100 Person Years, the “Pulmonary embolism, Rate” value ([1]; Warfarin arm) was 0.09 /100 Person Years and the “Reason for discontinuation: Gastrointestinal bleeding” value ([1]; Warfarin arm) was “(0.9) %”. The “Reason for discontinuation: Gastrointestinal disorders” value ([1]; Warfarin arm) was “(0.8) %”, the “Reason for discontinuation: Outcome event” value ([1]; Warfarin arm) was “(2.2) %” and the “Reason for discontinuation: Patient decision” value ([1]; Warfarin arm) was “(6.2) %”. For the same molecule, the “Reason for discontinuation: SAE” value ([1]; Warfarin arm) was “(1.6) %”, the “Stroke or systemic embolism, Rate” value ([1]; Warfarin arm) was 1.70 /100 Person Years and the “Stroke, Hemorrhagic, Rate” value ([1]; Warfarin arm) was 0.38 /100 Person Years. For the same molecule, the “Stroke, Rate” value ([1]; Warfarin arm) was 1.58 /100 Person Years, the “Study Drug Discontinuation At one year” value ([1]; Warfarin arm) was “(10) %” and the “Study Drug Discontinuation At two years” value ([1]; Warfarin arm) was “(19) %”. For the same molecule, the “Vascular Death, Rate” value ([1]; Warfarin arm) was 2.69 /100 Person Years, the “hepatobiliary disorders (AE)” value ([1]; Warfarin arm) was “(2.2) %” and the “hepatobiliary disorders (SAE)” value ([1]; Warfarin arm) was “(0.4) %”. The “Study Drug Discontinuation At one year” value ([1]; Warfarin arm, listed as warfarin) was 10%, the “Stroke, systemic embolism, pulmonary embolism, myocardial infarction death or major bleed, Rate” value ([1]; net benefit, Warfarin arm) was 7.99 /100 Person Years and the “Mortality rate, death from any cause” value ([1]; warfarin) was 4.13 % per year. For the same molecule, the “Rate of discontinuation at 2.5 years” value ([1]; warfarin) was 19%, the “Rate of hemorrhagic stroke” value ([1]; warfarin) was 0.38 % per year and the “Rate of major hemorrhage / major bleeding” value ([1]; warfarin) was 3.46 % per year. For the same molecule, the “Rate of myocardial infarction” value ([1]; warfarin) was 0.54 % per year, the “Rate of net benefit-risk outcome (major vascular events, major bleeding and death)” value ([1]; warfarin) was 7.99 % per year and the “Rate of the primary outcome, stroke or systemic embolism” value ([1]; warfarin) was 1.70 % per year. For the same molecule, the “Myocardial Infarction” value (AF patients [2]) was 0.6%, the “Stroke and systemic embolism (per 100 patient years)” value (AF patients [2]) was 1.5% and the “Stroke and systemic embolism (per 100 patient years)” value (AF patients [3]; [6]) was 2.3%. The “Myocardial Infarction” value (AF patients [3]; ximelagatran vs. warfarin) was 0.6%, the “Reduction of the risk of stroke compared to control” value [4] was 64% and the “Stroke and systemic embolism (per 100 patient years)” value (AF patients [5]; [6]) was 1.2%. The “Myocardial Infarction” value (AF patients [5]; ximelagatran vs. warfarin) was 1.4%.

— patent US20110251160A1 (priority 2008, published 2011)
